Assay results: patent US12404252B2, “Salt of 2-amino-2-(2-(1-decyl-1H-1,2,3-triazol-4-yl)ethyl)propane-1,3-diol, and pharmaceutical composition containing same” (NEXTGEN BIOSCIENCE CO., LTD, priority 2021, dated 2025)
Values joined by “and” are separate entries in the source; they are usually repeats but may differ in a detail not shown here. Equal entries are not always repeated.

Key:
[1] = Standard stock solution stability, 60° C./75±5% RH; type: physicochemical; conditions: 60° C./75% RH, Initial
Description: The stability of the crystalline compound was under 60° C./75±5% RH conditions, and the purity thereof was examined by HPLC method. The experimental conditions used in the stability test for Compound 1a and the test results are as follows.
60° C./75±5% RH: Conditions in which the vial was open and upright.
A required amount (˜1 mg) of solid material was dissolved in 1 mL of a diluent (1:1 methanol/water), and the prepared solution was analyzed by HPLC.

Photostability test = type: physicochemical
Description: For a photostability test, 10 mg of Compound 1a was exposed to 1.2 million lux hours of ultraviolet and visible light at room temperature. For an oxidation stability test, 0.2 mL of 30% H2O2 and 1 mg of Compound 1a were placed in a 2-mL vial and stored at 25° C. for up to 24 hours. The photostability and oxidation stability conditions used to evaluate the fumarate salt of Compound 1 and the evaluation results are as follows.

[2] = Oxidation stability test (30% H2O2); type: physicochemical
[3] = system: T cells, CD4 T cells, and CD8 T cells; experiment: Inhibitory effect against mouse immune cells (FACS after oral administration); type: in vivo; conditions: mice, oral 3 mg/kg
Description: In order to examine whether Compound 1, which acts on the S1P receptor, also is effective in reducing lymphocytes, the effect of Compound 1 on immune cells was evaluated. After oral administration of Compound 1 to mice at 3 mg/kg/day, changes in lymphocytes in peripheral blood (PB) and bone marrow (BM) were classified into T cells, CD4 T cells, and CD8 T cells. FACS analysis was performed 0, 4, 8, 12, 24, and 36 hours after administration of the test substance. Cell number was measured and expressed as a percentage relative to that at time 0 (% of control).

[4] = system: T cells, CD4 T cells, and CD8 T cells; experiment: Inhibitory effect against rat immune cells (FACS after oral administration); type: in vivo; conditions: SD rats
Description: In order to evaluate the effect of Compound 1a on rat immune cells, Compound 1a was administered orally to SD rats at 10 mg/kg/day, and then lymphocytes in peripheral blood (PB) and bone marrow (BM) were classified into T cells, CD4 T cells, and CD8 T cells. FACS analysis was performed 0, 4, 8, 12, 24, 36, and 48 hours after administration of the test substance. Cell number was measured and expressed as a percentage relative to that at time 0 (% of control). The numbers of T cells, CD4 T cells, and CD8 T cells were measured and expressed as percentages relative to those at time 0 (% of control).

[5] = Effect on cardiovascular system in beagle dogs (telemetry); type: in vivo; conditions: oral 12.5, 25, and 50 mg/kg
Description: Compound 1a was orally administered to four non-anesthetized and unrestrained male beagle dogs implanted with remote transmitters. Next, the heart rates of the four beagle dogs were measured to evaluate the effect of Compound 1a on the cardiovascular system, and whether abnormal symptoms occurred was visually checked.
In this experiment, the test substance was administered to each of the four beagle dogs in four steps. In the first administration step (0 mg/kg of Compound 1a), 0.5% MC aqueous solution as control vehicle was administered, and in the second administration step, 12.5 mg/kg of Compound 1a was administered. In the third administration step, 25 mg/kg of Compound 1a was administered, and in the fourth administration step, 50 mg/kg of Compound 1a was administered. The first to fourth administrations were performed at one-week intervals. Additionally, 0 hour before administration of the test substance, and 0.5 hours, 1 hour, 2 hours, 3 hours, 4 hours, 6 hours, 8 hours, 12 hours, and 24 hours after administration of the test substance, the heart rates of the beagle dogs were measured.

[6] = system: unilateral ureteral obstruction (UUO) model; experiment: Unilateral ureteral obstruction (UUO) renal fibrosis model; type: in vivo; conditions: UUO mice, 2 weeks
Description: The antifibrotic effect of Compound 1a in renal disease was evaluated using the unilateral ureteral obstruction (UUO) model, which is a renal fibrotic disease model. Kidney fibrosis was induced by unilateral ureteral obstruction of mice, and then Compound 1a at 10, 30, and 90 mg/kg/day and the positive control substance telmisartan at 30 mg/kg/day were orally administered to the mice once a day for 2 weeks.

[7] = system: adenine-induced chronic kidney disease model; experiment: Adenine-induced chronic kidney disease model; type: in vivo; conditions: adenine-induced CKD mice, 3 weeks
Description: The antifibrotic effect of Compound 1a was evaluated using an adenine-induced chronic kidney disease model. 0.5% adenine (in 0.5% CMC) was orally administered to mice for 4 weeks to induce chronic kidney disease, and Compound 1a at 10, 30, and 90 mg/kg/day and the positive control substance telmisartan 10 mg/kg/day were administered orally to the mice for 3 weeks, followed by measurement of serum creatinine, serum BUN, and kidney hydroxyproline, and histopathology. In addition, the tubular-interstitial index value was determined based on the above measurement results.

[8] = system: alopecia areata model (C3H/HeJ); experiment: Alopecia areata model (C3H/HeJ); type: in vivo; conditions: C3H/HeJ mice, 30 mg/kg orally, 12 weeks
Description: The efficacy of Compound 1a against alopecia areata was evaluated using a model (C3H/HeJ) with spontaneous alopecia areata. The C3H/HeJ mice used in the test are animals that spontaneously develop alopecia areata with increasing age. […] 30 mg/kg of Compound 1a was administered orally to the mice for 12 weeks, and then disease-free ratio and AA lesion area were measured.

[9] = biological target: hERG potassium ion channel (Homo sapiens, UniProt Q12809)
Sequence of hERG potassium ion channel (Q12809 whole entry): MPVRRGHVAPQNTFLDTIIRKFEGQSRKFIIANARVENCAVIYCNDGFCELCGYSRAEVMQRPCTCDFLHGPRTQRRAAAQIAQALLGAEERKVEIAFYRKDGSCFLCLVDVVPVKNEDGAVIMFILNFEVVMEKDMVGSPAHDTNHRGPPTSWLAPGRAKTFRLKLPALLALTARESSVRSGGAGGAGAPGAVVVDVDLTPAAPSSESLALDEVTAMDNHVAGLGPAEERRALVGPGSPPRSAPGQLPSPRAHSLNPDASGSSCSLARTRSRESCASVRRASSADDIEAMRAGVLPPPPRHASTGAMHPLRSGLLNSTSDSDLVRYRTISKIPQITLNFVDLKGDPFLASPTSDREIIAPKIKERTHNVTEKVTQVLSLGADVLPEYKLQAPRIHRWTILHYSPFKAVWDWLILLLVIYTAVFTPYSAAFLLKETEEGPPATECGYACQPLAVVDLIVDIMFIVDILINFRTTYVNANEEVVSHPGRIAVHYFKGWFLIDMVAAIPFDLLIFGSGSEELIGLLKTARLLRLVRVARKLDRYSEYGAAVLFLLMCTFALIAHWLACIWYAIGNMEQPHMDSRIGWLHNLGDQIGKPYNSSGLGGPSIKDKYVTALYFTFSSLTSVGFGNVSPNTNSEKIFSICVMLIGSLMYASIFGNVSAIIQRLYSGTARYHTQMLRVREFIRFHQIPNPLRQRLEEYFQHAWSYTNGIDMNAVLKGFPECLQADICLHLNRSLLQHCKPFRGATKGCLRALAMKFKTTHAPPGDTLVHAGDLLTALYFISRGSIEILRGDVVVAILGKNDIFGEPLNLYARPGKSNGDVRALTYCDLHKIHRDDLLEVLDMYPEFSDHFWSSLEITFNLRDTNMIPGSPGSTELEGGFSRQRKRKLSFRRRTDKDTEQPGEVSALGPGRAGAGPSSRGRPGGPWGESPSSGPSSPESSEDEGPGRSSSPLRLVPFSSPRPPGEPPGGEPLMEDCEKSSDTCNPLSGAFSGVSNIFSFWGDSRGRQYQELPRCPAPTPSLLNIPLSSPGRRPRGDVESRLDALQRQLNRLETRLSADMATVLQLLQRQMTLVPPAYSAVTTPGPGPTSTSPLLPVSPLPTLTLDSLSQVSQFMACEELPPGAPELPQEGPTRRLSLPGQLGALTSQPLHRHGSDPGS

## CCCCCCCCCCn1cc(CCC(N)(CO)CO)nn1 [Compound 1a, 2-amino-2-(2-(1-decyl-1H-1,2,3-triazol-4-yl)ethyl) propane-1,3-diol]
[1]
  Purity %: 99.11%
Photostability test; Photostability 1.2 million lux hours exposed
  Purity %: 99.52%
Photostability test; Photostability 1.2 million lux hours unexposed
  Purity %: 99.70%
[2]; 30% H2O2 25° C. for 3 hours
  Purity %: 99.50%
[2]; 30% H2O2 25° C. for 24 hours
  Purity %: 94.30%
[3]; 4 hours
  CD4 T cells in peripheral blood, relative to time 0 (% of control): 16.4% and 17.6%
  CD8 T cells in peripheral blood, relative to time 0 (% of control): 5.9% and 9.3%
  T cells in peripheral blood, relative to time 0 (% of control): 40.6% and 41.6%
  T-cell distribution in bone marrow (BM), % of control: 135% and 120%
[3]; 24 hours
  T-cell distribution in bone marrow (BM), % of control: 131% and 118%
[4]
  change of cell number in bone marrow (BM): no change or a tendency to increase
[4]; dose-dependent, doses of the three values not given
  inhibitory effect on number of T cells in peripheral blood (PB): 70% and 80% and 87%
[5]
  general symptoms (visual observation): no abnormal symptoms were observed
[5]; up to 24 hours
  heart rate: no change in the heart rate
[6]; 10 mg/kg/day orally
  Kidney hydroxyproline: statistically significantly decreased
[6]; 30 mg/kg/day orally
  Kidney hydroxyproline: statistically significantly decreased
[6]; 90 mg/kg/day orally
  Kidney hydroxyproline: statistically significantly decreased
  Kidney hydroxyproline (second statement, 'in particular', p<0.05): statistically significantly decreased
[7]; 30 mg/kg/day orally
  kidney hydroxyproline level compared to control group: statistically significantly decreased
[7]; 90 mg/kg/day orally
  kidney fibrosis (tubular-interstitial index): statistically significantly decreased
  serum BUN level: 157.4 ± 32.3 mg/dL
  serum creatinine level: 0.90 ± 0.12 mg/dL
[8]
  body weight versus control group: no significant difference
  days when 100% alopecia areata was observed: 84 days
[9]
  Hill coefficient: 1.527
[9]; 30 μM
  compensated suppression rate (%) of hERG channel currents: 82.62±7.31%
